Experimental data from patent US20140329832A1, “METABOLIC DEGRADATION INHIBITORS FOR ANTI-HYPERPROLIFERATIVE AGENTS” (CHILDRENS HOSPITAL LOS ANGELES, priority 2007, published 2014).

Tests used:
[1] = in vivo; conditions: nude (nu/nu), mouse, 180 mg/kg/day
Experimental: The fluconazole dose approximately corresponded to a human equivalent dose of 100 mg/day for a 70 kg human. […] These doses are within the standard range of human treatment doses for both of these antifungal agents. Animals were sacrificed four hours after the last drug dosing and levels of fenretinide measured in the plasma by a HPLC methodology.

[2] = Effect of various dosages of ketoconazole on fenretinide levels in mouse plasma (Example 3, HPLC); format: in vivo; conditions: NOD/SCID mice; ketoconazole 37, 75 or 150 mg/kg/day, nine doses, starting two days prior to fenretinide 180 mg/kg/day, five doses; all dose levels, P<0.05
Excerpt: Animals were sacrificed four hours after the last drug dosing and levels of fenretinide measured in the blood plasma by a HPLC methodology.

[3] = nude mice bearing SMS-KCNR xenografts; ketoconazole 50 mg/kg/day, nine doses, starting two days prior to fenretinide 180 mg/kg/day, five doses

SMILES | concentration at 4 h [1] | effect on mean fenretinide level in plasma compared to controls [2] | effect on fenretinide levels in tumor tissue [3]
CC1=C(/C=C/C(C)=C/C=C/C(C)=C/C(=O)Nc2ccc(O)cc2)C(C)(C)CCC1 [fenretinide, N-(4-hydrophenyl) retinamide] | 12.6 µM |  | 
CC(=O)N1CCN(c2ccc(OCC3COC(Cn4ccnc4)(c4ccc(Cl)cc4Cl)O3)cc2)CC1 (stereo not drawn) [ketoconazole] |  | significantly increased | increased
